Tested on: tumor cell cluster composed of mouse insulinoma cells (MIN6)
Assay: Imaging of tumor cell cluster composed of MIN6 cells (real time laser scanning confocal microscope)
Assay type: cell-based
Experimental: A culture solution prepared by suspending MIN6 cells at a proportion of 10×10^4 cells/mL was dropped in an amount of 10 μL on a glass cover slip, then, allowed to adhere to the glass surface, and 3 mL of the culture solution was added and cultured. The half quantity of the culture solution was changed every three days.
Cryopreserved MIN6 cells (cells donated from Professor Miyazaki Junichi of Osaka University and cultured 5 to 8 passages) were subjected to culture according to an ordinary method, and cultured 7 to 9 passages which were used in experiments. The half amount of the culture solution was changed every two days.
NaCl 120.0 mM, KCl 4.75 mM, KH2 PO4 1.19 mM, MgSO4.7H2O 1.19 mM, CaCl2.2H2O 1 mM, NaHCO3 5.02 mM, D-Glucose 5.6 mM, HEPES 10 mM (adjusted to pH 7.35 with 1M NaOH). For inhibiting entrance and elimination of fluorescently labeled glucose via a gap junction/hemichannel, 0.1 mM Carbenoxolone (SIGMA #C4790) was added. The HEPES solution for image acquisition was used as a solution for preparing a 2-PBLG solution and as a solution for preparing a 2-PBLG/2-TRLG solution and 2-PBLG/2-NBDLG/2-TRLG solution.
A glass cover slip wherein MIN6 cells had been cultured was transferred into a HEPES solution for image acquisition in a perfusion chamber set on a universal stage (Leica 11600234) on a confocal laser scanning microscope (TCS SP5 available from Leica), and adhered gently and tightly to the glass surface at the bottom of the chamber. […] Further, there is an excellent effect that in the space sandwiched by the metal guides, the perfusion solution flows smoothly as a laminar flow and quick solution exchange is possible.
A perfusion solution feeding system is equipped with one 60 mL cylinder for a control solution and five 10 mL cylinders for agent feeding, which can be switched as needed by a magnetic valve to allow perfusion. In experiments according to the present invention, a 5.6 mM glucose-containing HEPES solution for image acquisition was administered using the 60 mL cylinder and a mixed solution of 2-PBLG/2-NBDLG/2-TRLG, a mixed solution of 2-PBDG/2-TRLG, or a mixed solution of 2-PBLG/2-TRLG was administered using one of the five 10 mL cylinders. As described below, to avoid generation of bubbles in the perfusion chamber, both the solutions were heated beforehand, combined in one tube before being introduced into the perfusion chamber, the flow rate thereof being controlled by a flow rate controller, then, heated again by an inline heater and fed to the perfusion chamber on the confocal microscope.
A laser scan confocal microscope (manufactured by Leica, TCS-SP5 system, microscope body is DMI6000 CS trino electromotive inverted microscope) was used in conventional mode. Regarding laser used, a 405 nm diode laser was used for excitation of 2-PBLG and 2-PBDG, excitation of a mixed solution of 2-PBLG (or 2-PBDG) and 2-TRLG with a single light source, or live staining of nucleus by DAPI. The irradiation intensity was appropriately adjusted in accordance with the fluorescent pigment used so as to obtain sufficient observation intensity by an acoustic optical polarization element (Acoustic Optical Tunable Filter, AOTF). 2-NBDLG and 2-TRLG were excited by 488 nm Argon laser. The scan speed was 200 Hz or 400 Hz.
In fluorescence detection, a photomultiplier detector (PMT) 1 was used for detection of blue fluorescence by 2-PBDG or 2-PBLG and images were acquired in a wavelength detection range set at 415-580 nm in the case of detection of bicolor of 2-PBLG/2-TRLG and in a wavelength detection range set at 415-500 nm in the case of detection of tricolor of 2-PBLG/2-NBDLG/2-TRLG. For detection of green fluorescence by 2-NBDLG, PMT2 (called green channel, the same shall apply hereinafter) was used in a wavelength detection range of 500-580 nm. For detection of red fluorescence by 2-TRLG, PMT3 (called red channel, the same shall apply hereinafter) was used in a wavelength detection range of 580-740 nm. […]

[1] = mixed solution 100 μM 2-PBLG and 20 μM 2-TRLG

## O=C(NC1C(O)OC(CO)[C@H](O)C1O)c1cc2cc(F)c(O)c(F)c2oc1=O (stereo partly drawn) [2-PBLG, 2-Deoxy-2-((6,8-difluoro-7-hydroxycoumarin-3-yl)carboxamido)-L-glucose]
[1]
  fluorescence of cells in the cell cluster 8 minutes after initiation of washout: scattered around the outer edge of the center of a cell cluster
  fluorescence of cells in the cell cluster 12 minutes after initiation of washout: still multiple cells showing the strongly positive signal
Mixed solution 100 μM 2-PBLG and 20 μM 2-TRLG, administered 5 minutes, MIN6 cluster day 13
  fluorescence of cells in the cell cluster 2 minutes after initiation of washout: extremely intense blue fluorescence is emitted from some cells
Mixed solution 100 μM 2-PBLG, 100 μM 2-NBDLG, 20 μM 2-TRLG
  fluorescence of cells in the cancer cell cluster 12 minutes after completion of administration: emit blue fluorescence by 2-PBLG continuously
Mixed solution 100 μM 2-PBLG, 100 μM 2-NBDLG, 20 μM 2-TRLG, MIN6 cluster day 13
  fluorescence of cells in the cancer cell cluster 8 minutes after completion of administration: intense blue fluorescence by 2-PBLG is maintained continuously
